Measured values as given in the supplement of paper PMC10307832.

Assays:
Assay in all cases: relative viability (nuclei count vs DMSO), 5 days (fraction); higher = more cells survive
Gemcitabine + Vorinostat = compound: Nc1ccn([C@@H]2O[C@H](CO)[C@@H](O)C2(F)F)c(=O)n1 [Gemcitabine] + O=C(CCCCCCC(=O)Nc1ccccc1)NO [Vorinostat] (partner 1 µM)
Summary of the method: (§1)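 Dosing by pin tool came one day after lung cancer cell lines were seeded in 1536-well plates, using either one drug or a fixed anchor-drug dose plus five library-drug doses (not always all listed) in √10 steps. After 5 days, nuclei were counted on 4× images. Relative viability is treated-well nuclei count divided by vehicle-well nuclei count, and values are medians of duplicate plates.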

Gemcitabine + Pemetrexed = compound: Nc1ccn([C@@H]2O[C@H](CO)[C@@H](O)C2(F)F)c(=O)n1 [Gemcitabine] + Nc1nc2[nH]cc(CCc3ccc(C(=O)N[C@@H](CCC(=O)O)C(=O)O)cc3)c2c(=O)[nH]1 [Pemetrexed] (partner 0.2 µM)
Summary of the method: as §1

Gemcitabine + Dasatinib = compound: Nc1ccn([C@@H]2O[C@H](CO)[C@@H](O)C2(F)F)c(=O)n1 [Gemcitabine] + Cc1nc(Nc2ncc(C(=O)Nc3c(C)cccc3Cl)s2)cc(N2CCN(CCO)CC2)n1 [Dasatinib] (partner 0.075 µM)
Summary of the method: as §1

[1] = compound: Nc1ccn([C@@H]2O[C@H](CO)[C@@H](O)C2(F)F)c(=O)n1 [Gemcitabine] + CC(=O)c1c(C)c2cnc(Nc3ccc(N4CCNCC4)cn3)nc2n(C2CCCC2)c1=O [Palbociclib] (partner 0.5 µM)
Summary of the method: as §1

Cell Line | relative viability (Gemcitabine + Vorinostat; first compound 0.001 µM) | relative viability (Gemcitabine + Vorinostat; first compound 0.003162 µM) | relative viability (Gemcitabine + Vorinostat; first compound 0.01 µM) | relative viability (Gemcitabine + Vorinostat; first compound 0.03162 µM) | relative viability (Gemcitabine + Vorinostat; first compound 0.1 µM) | relative viability (Gemcitabine + Pemetrexed; first compound 0.001 µM) | relative viability (Gemcitabine + Pemetrexed; first compound 0.003162 µM) | relative viability (Gemcitabine + Pemetrexed; first compound 0.01 µM) | relative viability (Gemcitabine + Pemetrexed; first compound 0.03162 µM) | relative viability (Gemcitabine + Pemetrexed; first compound 0.1 µM) | relative viability (Gemcitabine + Dasatinib; first compound 0.001 µM) | relative viability (Gemcitabine + Dasatinib; first compound 0.003162 µM) | relative viability (Gemcitabine + Dasatinib; first compound 0.01 µM) | relative viability (Gemcitabine + Dasatinib; first compound 0.03162 µM) | relative viability (Gemcitabine + Dasatinib; first compound 0.1 µM) | relative viability ([1]; first compound 0.001 µM) | relative viability ([1]; first compound 0.003162 µM) | relative viability ([1]; first compound 0.01 µM) | relative viability ([1]; first compound 0.03162 µM) | relative viability ([1]; first compound 0.1 µM)
NCI-H1793 | 0.985 | 0.62 | 0.152 | 0.148 | 0.106 | 1.09 | 0.98 | 0.406 | 0.139 | 0.141 | 0.368 | 0.388 | 0.186 | 0.12 | 0.12 | 0.297 | 0.3 | 0.267 | 0.167 | 0.145
NCI-H1915 | 0.49 | 0.5 | 0.45 | 0.391 | 0.258 | 0.484 | 0.516 | 0.453 | 0.513 | 0.475 | 0.357 | 0.344 | 0.295 | 0.255 | 0.181 | 0.522 | 0.532 | 0.508 | 0.425 | 0.22
NCI-H1944 | 0.59 | 0.572 | 0.321 | 0.192 | 0.131 | 0.586 | 0.601 | 0.554 | 0.254 | 0.112 | 0.208 | 0.209 | 0.182 | 0.153 | 0.123 | 0.357 | 0.286 | 0.268 | 0.229 | 0.171
NCI-H1975 | 0.741 | 0.714 | 0.372 | 0.18 | 0.186 | 0.286 | 0.29 | 0.306 | 0.178 | 0.173 | 0.419 | 0.574 | 0.241 | 0.0982 | 0.103 | 0.638 | 0.502 | 0.48 | 0.148 | 0.122
NCI-H1993 | 0.723 | 0.904 | 0.547 | 0.471 | 0.317 | 0.545 | 0.513 | 0.516 | 1.17 | 0.409 | 0.617 | 0.529 | 0.446 | 0.509 | 0.42 | 0.656 | 0.575 | 0.524 | 0.443 | 0.379
NCI-H2009 | 0.604 | 0.552 | 0.289 | 0.115 | 0.0881 | 1.08 | 0.882 | 0.473 | 0.127 | 0.0868 | 0.297 | 0.219 | 0.101 | 0.101 | 0.0766 | 0.216 | 0.203 | 0.193 | 0.132 | 0.0838
NCI-H2023 | 0.773 | 0.388 | 0.259 | 0.0711 | 0.061 | 0.265 | 0.282 | 0.152 | 0.0833 | 0.0801 | 0.529 | 0.533 | 0.207 | 0.0853 | 0.0604 | 0.354 | 0.39 | 0.218 | 0.138 | 0.0722
NCI-H2085 | 0.857 | 0.739 | 0.652 | 0.621 | 0.368 | 0.94 | 0.882 | 0.827 | 0.772 | 0.406 | 0.221 | 0.232 | 0.287 | 0.206 | 0.158 | 0.441 | 0.433 | 0.316 | 0.314 | 0.3
